Here are results for two compounds from patent US20060287251A1, “Combination therapy for glycaemic control” (priority 2003, published 2006).

Assay [1] deals with T1, Dipeptidyl Peptidase I (cathepsin C) (Rattus norvegicus, UniProt P80067).
T1 construct: purchased Qiagen GmbH, Hilden, Germany
T1 sequence (P80067 25-462): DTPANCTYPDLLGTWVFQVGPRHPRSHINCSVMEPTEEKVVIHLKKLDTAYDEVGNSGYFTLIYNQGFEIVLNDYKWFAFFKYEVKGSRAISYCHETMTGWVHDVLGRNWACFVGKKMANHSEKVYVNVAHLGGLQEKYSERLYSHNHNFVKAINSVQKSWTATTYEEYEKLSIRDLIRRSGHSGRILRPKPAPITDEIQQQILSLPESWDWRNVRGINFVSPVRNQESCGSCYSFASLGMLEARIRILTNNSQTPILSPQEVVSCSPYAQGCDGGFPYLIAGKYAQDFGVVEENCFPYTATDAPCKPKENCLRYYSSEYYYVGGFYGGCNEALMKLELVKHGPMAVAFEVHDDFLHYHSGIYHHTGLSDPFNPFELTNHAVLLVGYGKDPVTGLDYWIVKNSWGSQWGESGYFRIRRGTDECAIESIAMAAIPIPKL
Put plainly: Cross reacting enzymes: dipeptidyl peptidase I. The class given is biochemical. The following applies: concentration range 1*10^−5 M-1*10^−7 M. The protocol: Glutaminyl pyrrolidine or glutaminyl thiazolidine were tested for their cross reacting potency against dipeptidyl peptidase I, prolyl oligopeptidase and prolidase.
DP I or cathepsin C is a lysosomal cysteine protease which cleaves dipeptides from the N-terminus of their substrates (Gutman, H. R. & Fruton, J. S., 1948, J Biol. Chem., 174, 851-858). It is classified as a cysteine protease. The enzyme used was purchased from Qiagen (Qiagen GmbH, Hilden, Germany). In order to get a fully active enzyme, the enzyme was diluted 1000 fold in MES buffer pH5.6 (40 mM MES, 4 mM DTT, 4 mM KCl, 2 mM EDTA, 0.015% Brij) and pre-incubated for 30 min at 30° C. 50 μL glutaminyl pyrrolidine or glutaminyl thiazolidine in a concentration range of 1*10^−5 M-1*10^−7 M were admixed with 110 μL buffer-enzyme-mixture. The assay mixture was pre-incubated at 30° C. for 15 min After pre-incubation, 100 μL histidylseryl-para-nitroanilide (2*10^−5 M) were added and measurement of yellow color development due to para-nitroaniline release was performed at 30° C. and […] for 10 min, using a plate reader (HTS7000 plus, Applied Biosystems, Weiterstadt, Germany). The IC50-values were calculated using Graphit 4.0.15 (Erithacus Software, Ltd., UK). No inhibition of the DP I enzyme activity by glutaminyl pyrrolidine or glutaminyl thiazolidine was found.

Assay [2] has as its system diabetic Zucker rats. Put plainly: Dose escalation study with OGTT in fatty Zucker rats after oral administration. The class given is in vivo, rat. The protocol:
N=30 male Zucker rats (fa/fa), mean age 11 weeks (5-12 weeks), mean body weight 350 g (150-400 g), were purchased from Charles River (Sulzfeld, Germany). After delivery they were kept for >12 weeks until nearly all fatty Zucker rats had the characteristics of manifest diabetes mellitus. A group of N=8 animals were recruited for testing three escalating doses of glutaminyl pyrrolidine vs. placebo (saline). Animals were single-caged under standardized conditions with controlled temperature (22±2° C.) on a 12/12 hours light/dark cycle (light on at 06:00 AM). Sterile standard pelleted chow (ssniff® Soest, Germany) and tap water acidified with HCl were allowed ad libitum. Fatty Zucker rats of 24-31 weeks (mean: 25 weeks) age, adapted to the housing conditions, were well prepared for the study. Catheters were implanted into the carotid artery of fatty Zucker rats under general anaesthesia (i.p. injection of 0.25 ml/kg b.w. Rompun®[2%], BayerVital, Germany and 0.5 ml/kg b.w. Ketamin 10, Atarost GmbH & Co., Twistringen, Germany). The animals were allowed to recover for one week. The catheters were flushed with heparin-saline (100 IU/ml) three times per week.
Placebo (1 ml saline, 0.154 mol/l) or escalating doses of glutaminyl pyrrolidine (5, 15 and 50 mg/kg b.w.) were administered to groups of N=8 fatty Zucker rats. 375 mg of glutaminyl pyrrolidine were dissolved in 1000 μl DMSO (E. Merck, Darmstadt; Germany [Dimethyl sulfoxide p.a.]). 10 mL saline was added and 1 ml aliquots, each containing 34.09 mg of glutaminyl pyrrolidine, were stored at −20° C. For preparation of the test substance, dose dependent aliquots were diluted in saline. After overnight fasting, placebo or test substance were administered to the fatty Zucker rats via feeding tube orally (15 G, 75 mm; Fine Science Tools, Heidelberg, Germany) at −10 min An oral glucose tolerance test (OGTT) with 2 g/kg b.w. glucose (40% solution, B. Braun Melsungen, Melsungen, Germany) was administered at ±O min via a second feeding tube. Venous blood samples from the tail veins were collected at −30 min, −15 min, ±0 min and at 5, 10, 15, 20, 30, 40, 60, 90 and 120 min into 20 lμl glass capillaries, which were placed in standard tubes filled with 1 mL solution for blood glucose measurement. All blood samples were labelled with Code number, Animal Number, Date of sampling and Time of sampling.
Glucose levels were measured using the glucose oxidase procedure (Super G Glucose analyzer; Dr. Müller Gerältebau, Freital, Germany).
Statistical evaluations and graphics were performed with PRISM® 3.02 (GraphPad Software, Inc.). All parameters were analysed in a descriptive manner including mean and SD. […]

The mark [3] stands for this setting: 5, 15 and 50 mg/kg b.w. oral (dose escalation).

Structures are written as SMILES.

For `NC(=O)CC[C@H](N)C(=O)N1CCCC1` [glutaminyl pyrrolidine], in assay [1], the “inhibition of the DP I enzyme activity” value was “No inhibition”. In addition, in assay [2] (5 mg/kg b.w. oral, OGTT 2 g/kg glucose), the “glucose tolerance in OGTT” value is “limited improvement of glucose tolerance”. The “blood glucose levels and glucose tolerance in OGTT” value was “Significant lowering of elevated blood glucose levels and improvement of glucose tolerance” in assay [2] (15 mg/kg and 50 mg/kg b.w. oral, OGTT 2 g/kg glucose); “dose dependent lowering of elevated blood glucose levels” in assay [2] (setting [3]).
Take `NC(=O)CC[C@H](N)C(=O)N1CCSC1` [glutaminyl thiazolidine]: in assay [1], the “inhibition of the DP I enzyme activity” value is on record as “No inhibition”. The “blood glucose levels and glucose tolerance in OGTT” value in assay [2] (setting [3]) was “dose dependent lowering of elevated blood glucose levels and improvement of glucose tolerance”.
